Source: US4329453A, “Cephalosporin antibiotic” (Glaxo Group Limited, priority 1979, dated 1982)
Structures can show the parent of a compound that is named as a salt.

Key:
[1] = stability; type: physicochemical
Text: These properties render the hydrate of value in pharmaceutical use.
The salts for use in the preparation of the new pentahydrate according to the invention may be prepared by a process disclosed in the above-mentioned U.K. Patent Specification No. 2025398, i.e. by a process corresponding to the method above mentioned.

[2] = test system: bacteria; experiment: antibiotic activity in vitro (broad spectrum); type: cell-based
[3] = test system: Serratia; experiment: activity against Serratia; type: cell-based
[4] = test system: gram-negative bacteria; experiment: experimental infections in mice with gram-negative bacteria; type: in vivo
[5] = test system: Pseudomonas aeruginosa; experiment: experimental infections in mice with Pseudomonas aeruginosa; type: in vivo
[6] = nephrotoxicity in rats; type: in vivo; conditions: dosages of 2.0 g/kg
[7] = distribution and levels in small rodents after subcutaneous injection; type: in vivo
[8] = test system: Pseudomonas organisms; experiment: activity against Pseudomonas organisms; type: cell-based
[9] = test system: bacteria; conditions: as described in U.K. Patent Specification No. 2025398; cited from earlier work
[10] = especially at elevated temperatures, U.K. Patent Specification No. 2025398; cited from earlier work
[11] = test system: β-lactamase-producing gram-negative strains; conditions: as described in U.K. Patent Specification No. 2025398; cited from earlier work
[12] = test system: Providence; experiment: activity against Providence; type: cell-based
[13] = acute toxicity tests in mice; conditions: mouse, in vivo
[14] = early clinical results; type: in vivo, human
[15] = pharmacokinetic studies in human volunteers
[16] = test system: indole-positive Proteus; experiment: activity against indole-positive Proteus; type: cell-based
[17] = test system: gram-negative organisms; conditions: as described in U.K. Patent Specification No. 2025398; cited from earlier work
[18] = test system: pathogenic bacteria; experiment: antibiotic properties of the crystalline pentahydrate; type: cell-based; conditions: compared with compound (I)

CC(C)(O/N=C(\C(=O)N[C@@H]1C(=O)N2C(C(=O)[O-])=C(C[n+]3ccccc3)CS[C@H]12)c1csc(N)n1)C(=O)O [bishydrochloride, (6R,7R)-7-[(Z)-2-(2-Aminothizol-4-yl)-2-(2-carboxyprop-2-oxyimino)acetamidol]-3-(1-pyridiniummethyl)ceph-3-em-4-carboxylate bishydrochloride]
stability of crystalline bishydrochloride ([1]; crystallised from acetone and formic acid): highly stable

CC(C)(O/N=C(\C(=O)N[C@@H]1C(=O)N2C(C(=O)[O-])=C(C[n+]3ccccc3)CS[C@H]12)c1csc(N)n1)C(=O)O [ceftazidime, (6R,7R)-7-[(Z)-2-(2-aminothiazol-4-yl)-2-(2-carboxyprop-2-oxyimino)acetamido]-3-(1-pyridiniummethyl)ceph-3-em-4-carboxylate]
bactericidal action ([2]; at concentrations close to the minimum inhibitory concentration): rapidly bactericidal | effect of human serum on antibacterial properties ([2]; human serum): not impaired by human serum | effect of increased inocula ([2]; increased inocula): low | activity against Serratia [3]: excellent activity | treatment of experimental infections with gram-negative bacteria [4]: successfully treated | protection against strains of Pseudomonas aeruginosa [5]: excellent protection | protection compared with treatment with an aminoglycoside such as amikacin ([5]; versus amikacin): comparable | nephrotoxicity [6]: No nephrotoxicity has been observed | distribution in the bodies of small rodents [7]: well distributed | levels after subcutaneous injection ([7]; subcutaneous injection): useful therapeutic levels | activity against Pseudomonas organisms [8]: excellent activity | broad spectrum antibiotic activity [9]: broad spectrum antibiotic activity | stability of amorphous solid [10]: not particularly satisfactory | activity against β-lactamase-producing gram-negative strains [11]: unusually high activity | activity against Providence [12]: excellent activity | LD50 [13]: > 6000 mg/kg | antibiotic properties in the clinic [14]: reproduces in the clinic the excellent antibiotic properties | pharmacokinetic properties [15]: good pharmacokinetic properties | serum half-life [15]: long | serum levels after injection ([15]; injection): high and long lasting serum levels | activity against indole-positive Proteus [16]: excellent activity | activity against gram-negative organisms [17]: unusually high activity

CC(C)(O/N=C(\C(=O)N[C@@H]1C(=O)N2C(C(=O)[O-])=C(C[n+]3ccccc3)CS[C@H]12)c1csc(N)n1)C(=O)O [crystalline pentahydrate, (6R, 7R)-7-[(Z)-2-(2-aminothiazol-4-yl)-2-(2-carboxyprop-2-oxyimino)acetamido]-3-(1-pyridiniummethyl)ceph-3-em-4-carboxylate pentahydrate]
crystallinity and stability (quality) ([1]; new hydrate): superior quality | stability on storage ([1]; stored at 50° C. for an extended period): remarkably stable | antibiotic properties [18]: exhibits the antibiotic properties of the above-mentioned compound (I)
